Measured values taken from ChEMBL document CHEMBL1156134, “2-Amino-5-aryl-pyridines as selective CB2 agonists: synthesis and investigation of structure-activity relationships” (Bioorg Med Chem Lett, 2009).

What was measured:
Cannabinoid receptor 2 [1] = biological target: T1, Cannabinoid receptor 2 (Homo sapiens, UniProt P34972); test: Agonist activity at human CB2 receptor expressed in yeast cells relative to HU210; format: functional, cell-based
Liver microsomes = test: Clearance in rat liver microsomes; format: ADME, Microsome
Cannabinoid receptor 2 [2] = biological target: T1, Cannabinoid receptor 2; test: Agonist activity at human CB2 receptor expressed in yeast cells; format: functional, cell-based
Cannabinoid receptor 1 [3] = biological target: T2, Cannabinoid receptor 1 (Homo sapiens, UniProt P21554); test: Agonist activity at human CB1 receptor expressed in yeast cells; format: functional, cell-based
T2 sequence (P21554 whole entry): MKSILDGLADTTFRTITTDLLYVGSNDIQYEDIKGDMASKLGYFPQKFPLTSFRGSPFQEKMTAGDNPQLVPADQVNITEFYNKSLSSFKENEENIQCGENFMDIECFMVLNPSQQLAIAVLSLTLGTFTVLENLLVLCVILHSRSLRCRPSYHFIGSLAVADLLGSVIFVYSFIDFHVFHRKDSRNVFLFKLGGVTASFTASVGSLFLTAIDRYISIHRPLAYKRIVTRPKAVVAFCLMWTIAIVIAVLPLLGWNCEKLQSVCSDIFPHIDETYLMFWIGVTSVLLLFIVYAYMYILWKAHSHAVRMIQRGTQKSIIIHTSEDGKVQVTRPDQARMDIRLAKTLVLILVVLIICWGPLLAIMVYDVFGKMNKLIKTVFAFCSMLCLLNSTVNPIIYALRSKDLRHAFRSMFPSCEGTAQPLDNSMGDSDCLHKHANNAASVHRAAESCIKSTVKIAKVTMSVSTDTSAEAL

Cannabinoid receptor 1 [4] = biological target: T2, Cannabinoid receptor 1; test: Agonist activity at human CB1 receptor expressed in yeast cells relative to HU210; format: functional, cell-based

T1 sequence (P34972 whole entry): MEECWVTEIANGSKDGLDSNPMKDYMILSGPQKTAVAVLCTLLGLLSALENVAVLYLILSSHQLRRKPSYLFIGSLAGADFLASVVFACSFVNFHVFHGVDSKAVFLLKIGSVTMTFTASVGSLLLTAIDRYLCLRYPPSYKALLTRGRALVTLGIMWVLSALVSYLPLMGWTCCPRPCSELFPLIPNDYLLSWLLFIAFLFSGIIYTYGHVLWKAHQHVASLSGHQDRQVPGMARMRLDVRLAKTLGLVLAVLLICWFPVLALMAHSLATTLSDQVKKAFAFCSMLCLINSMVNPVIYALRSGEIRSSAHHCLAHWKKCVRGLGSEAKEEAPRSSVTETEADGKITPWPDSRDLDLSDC

Row | Efficacy (Cannabinoid receptor 2 [1]) [%] | CL (Liver microsomes) [mL/min/g] | EC50 (Cannabinoid receptor 2 [2]) [nM] | Compound | EC50 (Cannabinoid receptor 1 [3]) [nM] | Efficacy (Cannabinoid receptor 1 [4]) [%]
1 | 80 | > 50 | 63.1 | c1cc2occc2c(-c2ccc(N3CCCCCC3)nc2)n1 | – | –
2 | 19 | – | 3980 | O=C1CCC(=O)N1c1ccc(-c2cccc(Cl)c2Cl)cn1 | – | –
3 | 59 | – | 251 | O=C1CCCN1c1ccc(-c2cccc(Cl)c2Cl)cn1 | – | –
4 | 88 | 9.5 | 79.4 | Clc1cccc(-c2ccc(N3CCOCC3)nc2)c1Cl | – | –
5 | 86 | – | 126 | Cc1ccc(N)c(-c2ccc(N3CCCCCC3)nc2)n1 | – | –
6 | 103 | – | 501 | Clc1cccnc1-c1ccc(N2CCCCCC2)nc1 | – | –
7 | – | – | > 31600 | Fc1ccc(-c2ccc(N3CCOCC3)nc2)c(F)c1 | – | –
8 | 43 | – | 398 | Clc1ccccc1-c1ccc(N2CCOCC2)nc1 | – | –
9 | 58 | – | 251 | Fc1cccc(-c2ccc(N3CCOCC3)nc2)c1F | – | –
10 | 86 | – | 794 | Cc1cccnc1-c1ccc(N2CCCCCC2)nc1 | – | –
11 | 75 | – | 398 | N#Cc1cccnc1-c1ccc(N2CCCCCC2)nc1 | – | –
12 | 29 | – | 10000 | c1ccc(-c2ccc(N3CCCCCC3)nc2)nc1 | – | –
13 | 102 | – | 1260 | Cc1cnc(-c2ccc(N3CCCCCC3)nc2)c(C)c1 | – | –
14 | 73 | – | 501 | Cc1c(Cl)cccc1-c1ccc(N2CCOCC2)nc1 | – | –
15 | 87 | 27 | 63.1 | Clc1cccc(-c2ccc(N3CCCOCC3)nc2)c1Cl | – | –
16 | 91 | – | 1000 | Nc1cccnc1-c1ccc(N2CCCCCC2)nc1 | – | –
17 | 101 | 13 | 100 | Clc1ccc(-c2ccc(N3CCCCCC3)nc2)nc1 | – | –
18 | 100 | – | 316 | Clc1cnc(-c2ccc(N3CCCCCC3)nc2)c(Cl)c1 | – | –
19 | 73 | – | 501 | CC1CC(C)CN(c2ccc(-c3cccc(Cl)c3Cl)cn2)C1 (stereo not given) | – | –
20 | 11 | – | 3980 | Clc1ccc(-c2ccc(N3CCOCC3)nc2)cc1Cl | – | –
21 | 37 | 11 | 251 | C[C@@H]1CC[C@H](C)N1c1ccc(-c2cccc(Cl)c2Cl)cn1 | – | –
22 | 25 | – | 631 | Clc1ccc(Cl)c(-c2ccc(N3CCOCC3)nc2)c1 | – | –

Row | Compound | Efficacy (Cannabinoid receptor 2 [1]) [%] | CL (Liver microsomes) [mL/min/g] | EC50 (Cannabinoid receptor 2 [2]) [nM] | EC50 (Cannabinoid receptor 1 [3]) [nM] | Efficacy (Cannabinoid receptor 1 [4]) [%]
23 | FC(F)(F)c1cc(N2CCCCCC2)ncc1-c1cccc(Cl)c1Cl | 79 | – | 2510 | > 31600 | –
24 | FC(F)(F)c1cc(-c2cccc(Cl)c2Cl)cnc1N1CCCCCC1 | 12 | – | 6310 | > 31600 | –
25 | Clc1cccc(-c2ccc(N3CCSCC3)nc2)c1Cl | 93 | – | 158 | – | –
26 | Clc1cccc(-c2ccc(N3CCCCCC3)nc2)c1Cl | 104 | 30 | 39.8 | 10000 | 4
27 | Clc1cccc(-c2ccc(N3CCOCC3)nc2)c1 | 20 | – | 1000 | – | –
28 | CCCCNc1ccc(-c2cccc(Cl)c2Cl)cn1 | 88 | – | 79.4 | – | –
29 | Clc1ccc(-c2ccc(N3CCOCC3)nc2)c(Cl)c1 | – | – | > 31600 | – | –
30 | O=C(O)c1cc(-c2cccc(Cl)c2Cl)cnc1N1CCCCCC1 | 41 | – | 1580 | > 31600 | –
31 | O=C(c1cc(-c2cccc(Cl)c2Cl)cnc1N1CCCCCC1)N1CCOCC1 | 67 | > 50 | 79.4 | 10000 | 0.19
32 | CN(C)C(=O)c1cc(-c2cccc(Cl)c2Cl)cnc1N1CCCCCC1 | 37 | – | 794 | > 31600 | –
33 | N#Cc1cc(-c2cccc(Cl)c2Cl)cnc1N1CCCCCC1 | 41 | – | 3980 | > 31600 | –
34 | N#Cc1cc(N2CCCCCC2)ncc1-c1cccc(Cl)c1Cl | 86 | > 50 | 100 | 10000 | 13
